Article PMC7600679, “Benzoxazole-Based Metal Complexes to Reverse Multidrug Resistance in Bacteria” (Antibiotics, 2020)
Converted amounts (≈) assume the structure as drawn. Like-named read-outs stand apart in the source and are kept apart here.

Assays:
[1] = test system: E. coli AG100; assay: Minimum inhibitory concentration (broth microdilution, CLSI); format: cell-based, Escherichia coli; conditions: E. coli AG100, 18 h, visual inspection, read-out: MIC
Method: The strains were donated by Prof. Dr. Hiroshi Nikaido (Department of Molecular and Cell Biology and Chemistry, University of California, Berkeley, CA, USA).
(§1) The minimum inhibitory concentrations (MICs) of compounds were determined in 96-well plates based on the Clinical and Laboratory Standard Institute guidelines (CLSI guidelines). The compounds were diluted in 100 μL of MHB. Then, 10^−4 dilution of an overnight bacterial culture in 100 μL of medium were added to each well, with the exception of the medium control wells.

[2] = test system: S. aureus ATCC 25923; assay: Real-time ethidium bromide accumulation (efflux pump inhibition); format: cell-based, Staphylococcus aureus; conditions: compounds at ¼ MIC, EB 1 μg/mL, minute 30
Method: (§2) Since multidrug resistance EPs are very important factors contributing to multidrug resistance (MDR) in both Gram-positive and Gram-negative bacteria, the inhibition of these pumps could reverse the resistant phenotype and restore the activity of antibiotics. The effect of compounds on ethidium bromide (EB) accumulation was determined by the automated EB method. This assay was used to determine how much of the fluorescent dye and pump substrate EB was accumulated by the bacterial cells in the presence of the tested compounds. The real-time accumulation of EB was monitored for 30 min in both S. aureus and E. coli strains.
(§3) The accumulation of the efflux pump substrate EB was monitored by the automated EB method using a LightCycler real-time thermocycler (LightCycler 1.5, Roche, Indianapolis, IN, USA). An aliquot of an overnight culture of the S. aureus strains in TSB medium was inoculated into fresh TSB medium, and it was incubated until it reached an optical density (OD) of 0.6 at 600 nm. In the case of E. coli strains, the medium applied in the assay was LB broth; the preparation of the inoculum was similar to the one of S. aureus. The cells were washed with phosphate buffered saline (PBS; pH 7.4) and centrifuged at 13,000 × g for 3 min, the pellets were re-suspended in PBS (pH 7.4), and the OD was calibrated to 0.6 at 600 nm. The compounds were measured at ¼ MIC concentration (in double-concentrated form) to the EB solution in PBS. The final concentration of EB was determined according to the MIC and the fluorescent signal produced by this amount of EB. In the case of all strains, the concentration of EB was 1 μg/mL. Then, 10 μL of the EB solution plus the compound were pipetted into standard glass capillary tubes of 20 µL maximum volume (Roche, Indianapolis, USA), and 10 μL of bacterial culture (OD of 0.6 at 600 nm) were transferred to the capillaries. The capillaries containing the samples were placed into the carousel, and the fluorescence was monitored at the FL-2 channel in every minute on a real-time basis.
(§4) Based on the data obtained, the relative fluorescence index (RFI) of the last time point (minute 30) was determined as follows:RFI = (RFtreated − RFuntreated)/RFuntreated(1) where RFtreated is the relative fluorescence (RF) at the last time point of the EB retention curve in the presence of an inhibitor, and RFuntreated is the relative fluorescence at the last time point of the EB retention curve of the untreated control having the solvent control (DMSO).

[3] = test system: S. aureus 272123 (MRSA); assay: as above; format: cell-based, Staphylococcus aureus; conditions: compounds at ¼ MIC (3 at 12.5 µM), VER at 25 µM, EB 1 μg/mL, minute 30
Method: as §2, §3, §4

[4] = test system: E. coli AG100 A; assay: Minimum inhibitory concentration (broth microdilution, CLSI); format: cell-based, Escherichia coli; conditions: 18 h
Method: Wild-type E. coli K-12 AG100 strain (argE3 thi-1 rpsL xyl mtl Δ(gal-uvrB) supE44) expressing the AcrAB TolC EP at its basal level and its AcrAB-TolC deleted mutant E. coli K-12 AG100 A strain. The strains were donated by Prof. Dr. Hiroshi Nikaido (Department of Molecular and Cell Biology and Chemistry, University of California, Berkeley, CA, USA).
as §1

[5] = test system: Enterobacter cloacae 31298; assay: as above; format: cell-based; conditions: E. cloacae 31298
Method: (§5) The following bacterial strains were applied in the QS tests: C. violaceum 026 as sensor strain and E. cloacae 31298 isolated from clinical wound (used as N-acyl-homoserine lactone (AHL) producer); this strain induced pigment production by C. violaceum and is a model strain to study QS interactions.
as §1

[6] = test system: Chromobacterium violaceum 026; assay: as above; format: cell-based; conditions: C. violaceum 026
Method: as §5, §1

[7] = test system: S. aureus MRSA 272123; assay: Resistance modulation (MIC reduction) assay with CIP and TET; format: cell-based, Staphylococcus aureus; conditions: for Reduction of the MIC value of CIP: compound at a quarter of the MIC; for CIP MIC in combination with compounds: compound at ¼ MIC, value is the MIC of ciprofloxacin
Method: (§6) The resistance modulation effects of compounds with ciprofloxacin (CIP) and tetracycline (TET) antibiotics were evaluated by the MIC reduction method on the Gram-negative E. coli AG100, AG100 A, and the Gram-positive S. aureus ATCC and MRSA strains.
(§7) The chemosensitizing activity of benzoxazole-type ligands and their metal complexes was determined based on the MIC values of the antibiotics in the presence of sub-inhibitory concentrations of the compounds (¼ MIC) in both Gram-negative and Gram-positive strains. The MICs were determined in strains by the two-fold broth microdilution method in 96-well plates, using serial dilutions of TET and CIP. The first four rows contained two-fold dilutions of antibiotics, and combinations of the TET and CIP and tested compounds were transferred into the last four rows. The 10^−4 dilution of an overnight bacterial culture in 50 μL of MHB was then measured to each well, except for the medium control wells. The plates were kept at 37 °C for 18 h. MIC values of antibiotics and their combination with tested compounds were detected by visual inspection.

[8] = test system: E. coli AG100; assay: Real-time ethidium bromide accumulation (efflux pump inhibition, AcrAB-TolC); format: cell-based, Escherichia coli; conditions: compounds at ¼ MIC, EB 1 μg/mL, minute 30
Method: as §2, §3, §4

[9] = test system: E. coli AG100; assay: Resistance modulation (MIC reduction) assay with CIP and TET; format: cell-based, Escherichia coli; conditions: compound at ¼ MIC, value is the MIC of ciprofloxacin
Method: as §6, §7

[10] = E. coli AG100 A (AcrAB-TolC deleted), visual inspection

Row | SMILES | MIC ([1]; Escherichia coli) | Relative fluorescence index (RFI) [2] | Relative fluorescence index (RFI) [3] | MIC ([4]; Escherichia coli, AG100A) | MIC ([5]; Enterobacter cloacae) | MIC ([6]; Chromobacterium violaceum) | Reduction of the MIC value of CIP [7] | CIP MIC in combination with compounds [7] | Relative fluorescence index (RFI) [8] | CIP MIC in combination with compounds [9] | MIC [1] | MIC [4, 10] | MIC [5] | MIC [6]
1 | O=C(Cc1nc2ccccc2o1)C(F)F [Compound 3] | 50 µM (≈ 10.6 µg/mL) | −0.01 | 0.13 | 25 µM (≈ 5.28 µg/mL) | > 100 µM | > 100 µM | 2 fold | 6.25 µM | −0.07 | 0.016 µM |  |  |  | 
2 | [O-]C(=Cc1nc2ccccc2o1)C(F)(F)Cl.[O-]C(=Cc1nc2ccccc2o1)C(F)(F)Cl.[Zn+2] [Compound 5] |  | 0.03 | −0.13 |  |  |  | 2 fold | 6.25 µM | 0.37 | 0.016 µM | 50 µM | 12.5 µM | >100 µM | >100 µM
3 | [Fe+3].[O-]C(=Cc1nc2ccccc2o1)C(F)(F)F.[O-]C(=Cc1nc2ccccc2o1)C(F)(F)F.[O-]C(=Cc1nc2ccccc2o1)C(F)(F)F [Compound 12] |  | −0.02 | −0.02 |  |  |  | 2 fold | 6.25 µM | 0.04 | 0.016 µM | >100 µM | 50 µM | >100 µM | >100 µM
